# Laboratory results taken from paper PMC12668308, “A Novel Antimalarial Agent that Inhibits Protein Synthesis in Plasmodium falciparum” (Angewandte Chemie (International Ed. in English), 2025).
# pIC50: −log10 of the molar value. Values joined by “and” are separate entries in the source; they are usually repeats but may differ in a detail not shown here. Identical values can stand only once.
# Columns and labels:
# 3D7^Cas9 pfmdr1 G182S = assay type: cell-based, Plasmodium falciparum; settings: 3D7^Cas9 pfmdr1 G182S vs 3D7^WT
# Method: ^[a] 72-h [^3H] hypoxanthhine incorporation assay; Data is expressed as mean±s.d.. The assay was performed in three independent biological experiments, each in biological duplicates.
# P. falciparum asexual blood stage parasites were cultured in human red blood cells (RBC, Blutspende SRK, Zurich) at a hematocrit of 5% in RPMI 1640 medium. The RPMI 1640 medium (ThermoFisher Scientific #51800−043) was supplemented with the following: 24 mM NaHCO3 (pH 7.3, Sigma-Aldrich #31437−500G-R), 25 mM Hepes (Sigma-Aldrich #H4034−500G), 0.36 mM hypoxanthine (Sigma-Aldrich # H9377−25G), 100 µg mL^-1 neomycin (Sigma-Aldrich #N6386−100G) and 0.5% Albumax II (Thermo Fisher #11021−045). Additionally, 2 mM choline chloride (279 mg/L, Sigma-Aldrich #C7527−100G) was added to the culture to block the induction of sexual commitment as described. ^[31^] The RPMI 1640 medium and components were dissolved in water (Milli-Q purified), stirred for at least 3 h, and then sterile filtered (0.22 μm pore size) with a bottle top filter (Corning # 431118). Parasite cultures were maintained in an atmosphere of 3% O2, 4% CO2, and 93% N2 in air-tight chambers at 37 °C. The [^3H]-hypoxanthine incorporation assay was used to test compound activity in the specific parasite lines as described.^[32^] Briefly, compounds were dissolved in DMSO (10 mM) and diluted in a hypoxanthine-free culture medium. A limiting dilution was performed over a 64-fold range (6-step twofold dilution) in a 96-well plate in duplicates. For every starting concentration, a limiting dilution was performed over a 64-fold range (6-step twofold dilution) in a 96-well plate in two biological duplicates. Parasites were added at 100 µL to each well containing the compound to obtain a final parasitemia of 0.3% and haematocrit of 1.25%. The plates were incubated for 48 h before 0.25 µCi of [^3H]-hypoxanthine was added per well for an additional 24 h. Parasites were harvested on a glass-fiber filter with a Microbeta FilterMate cell harvester (Perkin Elmer, Waltham, USA) and radioactivity was counted using a MicroBeta2 liquid scintillation counter (Perkin Elmer, Waltham, US). The results were recorded, processed by subtraction of the mean background signal obtained from the uninfected RBC controls and expressed as percentage of untreated controls. The fifty percent inhibitory concentration (IC50) was calculated by using nonlinear, four parameter (variable slope) curve fitting as described ^[33^] after importing into GraphPad Prism (version 8.3.0).
# The P. falciparum 3D7 wild type parasites in the ring stage were transfected as described.^[20] Infected RBCs collected from a 5 ml culture of synchronous ring stage parasites (5-6% parasitemia at ) were added to 250 µl of packed RBCs and were co-transfected with 50µg of Cas9 and 50 µg of donor plasmids using a Bio-Rad Gene Pulser Xcell Electroporation System (single exponential pulse, 310 V, 250 µF). 24 hours post-transfection, 5 nM WR99210 (MedChemExpress #HY-116387) was added to the culture medium for six days to select for gene-edited parasites, and henceforth parasites were maintained in normal culture medium until a stably propagating parasite population was obtained. After ~4 weeks post-transfection, stably propagating parasite population were obtained. The transgenic parasite line (3D7^pfmdr1 G182S) was cloned out using an established plaque assays via limiting dilution.^[35^] […]
# [1] = tested on: laboratory-selected Dd2 strains; experiment: [3H]-hypoxanthine incorporation assay; assay type: cell-based; settings: Plasmodium falciparum, DD2, read-out: IC50 against the laboratory-selected Dd2 strains
# Method: To determine potential cross resistance against compound 31 in parasites harboring mutations that confer resistance to current antimalarials, its activity was assessed against drug‐resistant field isolates as previously described. […] A cross‐resistance was considered when there was more than a 10‐fold shift in the IC50 relative to the NF54 strain. […] Because of this, 31 was tested against laboratory‐selected Dd2 strains, which contained additional resistance variants to preclinical and clinical drug candidates.
# P. falciparum asexual blood stage parasites were cultured in human red blood cells (RBC, Blutspende SRK, Zurich) at a hematocrit of 5% in RPMI 1640 medium. […] Parasites were harvested on a glass-fiber filter with a Microbeta FilterMate cell harvester (Perkin Elmer, Waltham, USA) and radioactivity was counted using a MicroBeta2 liquid scintillation counter (Perkin Elmer, Waltham, US). The results were recorded, processed by subtraction of the mean background signal obtained from the uninfected RBC controls and expressed as percentage of untreated controls. The fifty percent inhibitory concentration (IC50) was calculated by using nonlinear, four parameter (variable slope) curve fitting as described ^[33^] after importing into GraphPad Prism (version 8.3.0).
# [2] = target: Aquaglyceroporin (W7K5E1) (Plasmodium falciparum, UniProt Q8II36); experiment: iSPP profiling, P. falciparum lysate; assay type: binding; settings: 100 µM compound 34
# Method: P. falciparum NF54 lysates were extracted as described in ^[26^] . The parasite asynchronous culture was extracted once 3-5% parasitemia was reached. Saponin lysis was done as described in 2.2.10. Once the parasite pellet was obtained, 2.5 volumes of ice-cold lysis buffer (50 mM Tris/HCl pH 7.5 (Avantor), 5% glycerol (Sigma-Aldrich), 150 mM NaCl (Carl Roth), 1.5 mM MgCl2 (Sigma-Aldrich), 1 mM DTT (Carl Roth), 0.8% IGEPAL CA-630 (Sigma-Aldrich), 1X Halt Protease and Phosphatase Inhibitor-Cocktails EDTA-free (Thermo Fisher Scientific)) was added to the parasite pellet. The lysate solution was subjected to three cycles of flash freeze-thaw with liquid nitrogen and ddH2O at RT. The lysates were centrifuged at 20,000 g for 20 minutes at 4 °C. The soluble protein fraction (supernatant) was collected and the protein content was quantified using the BCA assay (Pierce™ BCA Protein Assay Kit, Thermo Fisher Scientific). The lysate was stored at -80 °C until further use.
# The P. falciparum lysate was thawed on ice and diluted to 0.8 mg/mL. The lysate was aliquoted, and each aliquot was incubated with either a vehicle control (DMSO), 34 (dissolved in DMSO), or varying concentrations of 31 (dissolved in DMSO) at 0.01 µM, 0.1 µM, 10 µM, 50 µM, and 100 µM. Subsequently, the samples were incubated at room temperature for 30 minutes using a rotating mixer. After distribution into a 96-well plate, the samples were treated with increasing concentrations of A.E.A. (v/v) ranging from 14% to 28% (14, 16, 18, 20, 22, 24, 26, and 28%). Following a 20-minute incubation at 37°C with shaking at 750 rpm, the samples were centrifuged at 4400 g for 35 minutes to remove precipitated proteins. The soluble fractions were then pooled in equal volumes into a single sample using the Bravo Automated Liquid Handling Platform. […]
# The raw LFQ-DIA intensity values of biological replicates across all conditions were normalized to the median abundance using Excel. […] Dose-dependent curves were generated using normalized protein intensity values, expressed as a ratio to the vehicle control. […]
# Aquaglyceroporin (W7K5E1), sequence (Q8II36 whole entry, one chain of several): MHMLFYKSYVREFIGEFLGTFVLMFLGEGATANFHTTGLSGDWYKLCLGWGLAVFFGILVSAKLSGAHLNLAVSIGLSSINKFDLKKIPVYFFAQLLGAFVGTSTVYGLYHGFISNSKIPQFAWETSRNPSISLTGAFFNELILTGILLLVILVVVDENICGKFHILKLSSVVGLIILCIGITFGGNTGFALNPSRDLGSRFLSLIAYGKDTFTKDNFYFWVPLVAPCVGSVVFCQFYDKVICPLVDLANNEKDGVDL
SMILES,IC50 fold shift relative to 3D7^WT strain (3D7^Cas9 pfmdr1 G182S),pIC50 [1],log2FC [2]
"CN1CCN(Cc2ccc(O)c(NC(=O)c3cccc(Oc4cc(C(F)(F)F)ccn4)c3)c2)CC1 [Compound 31, N-(2-hydroxy-5-((4-methylpiperazin-1-yl)methyl)phenyl)-3-((4-(trifluoromethyl)pyridin-2-yl)oxy)benzamide]",7 and 6.6,8.18 to 8.62,
"O=C(Nc1cc(CN2CCOCC2)ccc1F)c1cccc(Oc2cc(C(F)(F)F)ccn2)c1 [Compound 34, N-(2-Fluoro-5-(morpholinomethyl)phenyl)-3-((4-(trifluoromethyl)pyridin-2-yl)oxy)benzamide]",,,0.4199
